In patent US12441720B2, “Modulators of the integrated stress response pathway” (EVOTEC INTERNATIONAL GMBH, priority 2020, dated 2025) one finds IC50 data, which are given here for ten compounds.

Molecules are shown by their SMILES. pIC50: −log10 of the molar value.

The pIC50 is −log10 of the IC50, conventionally taken in molar units.

One experiment relates to ATF4. Briefly: HEK-ATF4 High Content Imaging assay (prevention of Tunicamycin induced ISR). It is filed as cell-based. Particulars: Homo sapiens, wild-type HEK293 cells, 6 hrs incubation, ATF4 signal ratio nucleus/cytoplasm, read-out: Activity (IC50, HEK-ATF4 readout). How it is done: Example compounds were tested in the HEK-ATF4 High Content Imaging assay to assess their pharmacological potency to prevent Tunicamycin induced ISR. Wild-type HEK293 cells were plated in 384-well imaging assay plates at a density of 12,000 cells per well in growth medium (containing DMEM/F12, 10% FBS, 2 mM L-Glutamine, 100 U/mL Penicillin—100 μg/mL Streptomycin) and incubated at 37° C., 5% CO2. 24-hrs later, the medium was changed to 50 μl assay medium per well (DMEM/F12, 0.3% FBS, 2 mM L-Glutamine, 100 U/mL Penicillin—100 μg/mL Streptomycin). Example compounds were serially diluted in dimethyl sulfoxide (DMSO), spotted into intermediate plates and prediluted with assay medium containing 3.3 μM Tunicamycin to give an 11-fold excess of final assay concentration. In addition to the example compound testing area, the plates also contained multiples of control wells for assay normalization purposes, wells containing Tunicamycin but no example compounds (High control), as well as wells containing neither example compound nor Tunicamycin (Low control). The assay was started by transferring 5 μl from the intermediate plate into the assay plates, followed by incubation for 6 hrs at 37° C., 5% CO2. Subsequently, cells were fixed (4% PFA in PBS, 20 min at room temperature) and submitted to indirect ATF4 immunofluorescence staining (primary antibody rabbit anti ATF4, clone D4B8, Cell Signaling Technologies; secondary antibody Alexa Fluor 488 goat anti-rabbit IgG (H+L), Thermofisher Scientific). Nuclei were stained using Hoechst dye (Thermofisher Scientific), and plates were imaged on an Opera Phenix High Content imaging platform equipped with 405 nm and 488 nm excitation. Finally, images were analyzed using script based algorithms. The main readout HEK-ATF4 monitored the ATF4 signal ratio between nucleus and cytoplasm. Tunicamycin induced an increase in the overall ATF4 ratio signal, which was prevented by ISR modulating example compounds. In addition, HEK-CellCount readout was derived from counting the number of stained nuclei corresponding to healthy cells. This readout served as an internal toxicity control.

Experiment [1] concerns the target T1, human ERG potassium channel (hERG) (Homo sapiens, UniProt Q12809).
T1 construct: expressed in transfected cells; host or cells: HEK293, stably transfected, tetracycline-inducible
Briefly: hERG tail current recording, Rapid ICE automated patch-clamp (QPatch HTX). The note with it: recombinant HEK293 cell line stably transfected with hERG cDNA; test concentrations 0.3, 3 and 30 μM; read-out: hERG Activity (IC50, tail current inhibition). In kind it is cell-based. How it is done:
The potency of the example compounds in inhibiting human ERG potassium channel (hERG) tail current was assessed in a recombinant HEK293 cell line stably transfected with hERG cDNA under an inducible promoter, using Rapid ICE (rapid ion channel electrophysiology) assay. Rapid ICE is an automated patch-clamp assay utilizing the QPatch HTX system (Sophion Bioscience A/S). Briefly, inducible HEK hERG cells were cultivated in minimum essential medium supplemented with 10% FBS, 1% non-essential amino acids, 1% sodium pyruvate, 2 mM 1-glutamine, 15 μg/mL blasticidin, and 100 μg/mL hygromycin. hERG channel expression induction was obtained by adding 10 μg/mL tetracycline for 24, 48, or 72 h before recordings.
On the day of the experiment, cells were detached with TrypLE and prepared to be loaded on the instrument. Cells were resuspended in 7 mL of Serum-Free Media containing 25 mM Hepes and soybean trypsin inhibitor and immediately placed in the cell storage tank of the machine. The composition of the extracellular buffer was (mM): NaCl 137, KCl 4, CaCl2 1.8, MgCl2 1.0, d-glucose 10, N-2-hydroxyethylpiperazine-N′-2-ethanesulfonic acid (HEPES) 10, pH 7.4 with 1 M NaOH. The composition of the intracellular solution was (mM): KCl 130, MgCl2 1.0, ethylene glycol-bis(β-aminoethyl ether)-N,N,N′,N′-tetraacetic acid (EGTA) 5, MgATP 5, HEPES 10, pH 7.2 with 1 M KOH. The voltage protocol included the following steps: step from −80 to −50 mV for 200 ms, +20 mV for 4.8 s, step to −50 mV for 5 s, then step to the holding potential of […]. Example compounds were dissolved in DMSO and diluted in extracellular buffer to achieve final test concentrations (0.3, 3, and 30 μM) in 0.3% DMSO. The voltage protocol was run and recorded continuously during the experiment. The vehicle, corresponding to 0.3% DMSO in extracellular buffer was then applied for 3 min, followed by the example compound in triplicate. The standard combined exposure time was 5 min. The average of tail current amplitude values recorded from four sequential voltage pulses was used to calculate for each cell the effect of the example compound by calculating the residual current (% control) compared with vehicle pretreatment. Data were reported as % inhibition for each concentration tested, and IC50 values were estimated using QPatch software. At least two cells were tested, and even more if results diverged.
Background: The hERG channel carries a current that helps repolarise heart muscle cells.

T1 sequence (Q12809 whole entry): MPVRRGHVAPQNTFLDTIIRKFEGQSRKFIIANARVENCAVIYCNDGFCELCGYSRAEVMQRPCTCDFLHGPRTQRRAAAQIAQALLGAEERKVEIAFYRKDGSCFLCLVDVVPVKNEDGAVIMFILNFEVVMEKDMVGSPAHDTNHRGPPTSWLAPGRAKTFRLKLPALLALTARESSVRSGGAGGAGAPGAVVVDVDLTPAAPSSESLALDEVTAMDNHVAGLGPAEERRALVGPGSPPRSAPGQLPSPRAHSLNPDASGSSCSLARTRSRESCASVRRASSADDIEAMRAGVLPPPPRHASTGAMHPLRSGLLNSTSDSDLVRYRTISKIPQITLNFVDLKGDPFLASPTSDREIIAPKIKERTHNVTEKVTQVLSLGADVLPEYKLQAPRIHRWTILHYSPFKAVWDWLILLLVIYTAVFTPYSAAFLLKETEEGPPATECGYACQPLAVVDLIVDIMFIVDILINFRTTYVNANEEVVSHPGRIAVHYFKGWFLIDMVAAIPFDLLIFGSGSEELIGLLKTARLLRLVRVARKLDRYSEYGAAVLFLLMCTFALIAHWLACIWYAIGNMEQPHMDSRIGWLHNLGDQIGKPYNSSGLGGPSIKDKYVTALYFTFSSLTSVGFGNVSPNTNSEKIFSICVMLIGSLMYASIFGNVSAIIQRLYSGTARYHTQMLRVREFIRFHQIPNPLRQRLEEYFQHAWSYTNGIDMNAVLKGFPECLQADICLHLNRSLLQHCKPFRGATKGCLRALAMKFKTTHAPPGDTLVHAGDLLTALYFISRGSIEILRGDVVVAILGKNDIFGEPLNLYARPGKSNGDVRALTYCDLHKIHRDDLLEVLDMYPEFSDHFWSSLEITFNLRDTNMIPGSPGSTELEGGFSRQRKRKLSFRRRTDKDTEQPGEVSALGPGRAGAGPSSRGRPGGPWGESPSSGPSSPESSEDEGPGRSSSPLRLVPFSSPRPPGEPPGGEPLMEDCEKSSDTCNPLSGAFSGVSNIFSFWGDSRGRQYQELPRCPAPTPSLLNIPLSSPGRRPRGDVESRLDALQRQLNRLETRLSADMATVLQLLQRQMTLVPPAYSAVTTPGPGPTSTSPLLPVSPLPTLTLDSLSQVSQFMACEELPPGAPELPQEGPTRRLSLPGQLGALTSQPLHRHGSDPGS

For `O=C(COc1cnc(Cl)c(F)c1)N[C@H]1CO[C@H](c2nnc([C@H]3C[C@@H](OC(F)(F)F)C3)o2)OC1` [Example 10, 2-[(6-chloro-5-fluoro-3-pyridyl)oxy]-N-[trans-2-[5-[cis-3-(trifluoromethoxy)cyclobutyl]-1,3,4-oxadiazol-2-yl]-1,3-dioxan-5-yl]acetamide], the figures for the pIC50 (in the experiment with ATF4; in experiment [1]) were 4.82 to 5.70 and under 5.30, respectively.

Regarding `O=C(COc1ccc(Cl)c(F)c1)N[C@H]1CO[C@H](c2nnc(N3CC(OC(F)(F)F)C3)o2)OC1` [Example 7, 2-(4-chloro-3-fluorophenoxy)-N-[trans-2-{5-[3-(trifluoromethoxy)azetidin-1-yl]-1,3,4-oxadiazol-2-yl}-1,3-dioxan-5-yl]acetamide], the pIC50 in the experiment with ATF4 is 6.30 to 9.00; in experiment [1], under 5.30.

For `O=C(COc1ccc(Cl)c(F)c1)N[C@H]1CO[C@H](c2nnc(OCCOC(F)(F)F)o2)OC1` [Example 6, 2-(4-chloro-3-fluorophenoxy)-N-[trans-2-{5-[2-(trifluoromethoxy)ethoxy]-1,3,4-oxadiazol-2-yl}-1,3-dioxan-5-yl]acetamide], the pIC50 with ATF4 was 6.30 to 9.00; in experiment [1] it was under 5.30.

`O=C(COc1ccc(C(F)F)c(Cl)c1)N[C@H]1CO[C@H](c2nnc(N3CC(OC(F)(F)F)C3)o2)OC1` [Example 8, 2-[3-chloro-4-(difluoromethyl)phenoxy]-N-[trans-2-{5-[3-(trifluoromethoxy)azetidin-1-yl]-1,3,4-oxadiazol-2-yl}-1,3-dioxan-5-yl]acetamide]: the pIC50 with ATF4 was 6.30 to 9.00; in experiment [1], under 5.30.

As for `O=C(COc1ccc(Cl)c(F)c1)N[C@H]1CO[C@H](c2nnc([C@H]3C[C@@H](OC(F)(F)F)C3)o2)OC1` [Example 2, 2-(4-chloro-3-fluorophenoxy)-N-[trans-2-{5-[cis-3-(trifluoromethoxy)cyclobutyl]-1,3,4-oxadiazol-2-yl}-1,3-dioxan-5-yl]acetamide], the pIC50 in the experiment with ATF4 was 6.30 to 9.00; in experiment [1], under 5.30.

For the compound `O=C(COc1ccc(Cl)c(F)c1)N[C@H]1CO[C@@H](c2cn(-c3ccc(Cl)cc3)nn2)OC1` [Example 3, 2-(4-chloro-3-fluorophenoxy)-N-[cis-2-[1-(4-chlorophenyl)-1H-1,2,3-triazol-4-yl]-1,3-dioxan-5-yl]acetamide], the negative-log IC50 (pIC50) with ATF4 is 4.82 to 5.70.

With `O=C(COc1ccc(Cl)c(F)c1)N[C@H]1CO[C@H](c2cn(-c3ccc(Cl)cc3)nn2)OC1` [Example 4, 2-(4-chloro-3-fluorophenoxy)-N-[trans-2-[1-(4-chlorophenyl)-1H-1,2,3-triazol-4-yl]-1,3-dioxan-5-yl]acetamide], in the experiment on ATF4, the pIC50 was 5.70 to 6.30.

`O=C(COc1ccc(Cl)c(F)c1)N[C@H]1CO[C@H](c2nnc(-c3ccc(Cl)cc3)o2)OC1` [Example 1, 2-(4-chloro-3-fluorophenoxy)-N-[trans-2-[5-(4-chlorophenyl)-1,3,4-oxadiazol-2-yl]-1,3-dioxan-5-yl]acetamide]: the pIC50 in the experiment with ATF4 was 6.30 to 9.00.

For `O=C(COc1ccc(Cl)c(F)c1)N[C@H]1CO[C@H](c2nnc(OCCCC(F)(F)F)o2)OC1` [Example 5, 2-(4-chloro-3-fluorophenoxy)-N-[trans-2-[5-(4,4,4-trifluorobutoxy)-1,3,4-oxadiazol-2-yl]-1,3-dioxan-5-yl]acetamide], the figures for the negative-log IC50 (pIC50) (in the experiment with ATF4; in experiment [1]) were 6.30 to 9.00 and 5.30 to 6.00, respectively.

On to `O=C(COc1ccc(Cl)c(Cl)c1)N[C@H]1CO[C@H](c2nnc(OCCOC(F)(F)F)o2)OC1` [Example 9, 2-(3,4-dichlorophenoxy)-N-[trans-2-{5-[2-(trifluoromethoxy)ethoxy]-1,3,4-oxadiazol-2-yl}-1,3-dioxan-5-yl]acetamide], for which the pIC50 in the experiment on ATF4 was 6.30 to 9.00; in experiment [1], under 5.30.
